ChEMBL document CHEMBL1153943, “Exploring the pharmacokinetic properties of phosphorus-containing selective HDAC 1 and 2 inhibitors (SHI-1:2)” (Bioorg Med Chem Lett, 2009)

Assays:
[1] = Cmax in mouse at 150 mg/kg, po; assay type: ADME, organism-based; parameters: dose 150 mg/kg, route oral; details: in vivo
[2] = AUC in mouse at 150 mg/kg, po; assay type: ADME, organism-based, Plasma; parameters: dose 150 mg/kg, route oral; details: whole blood
Histone deacetylase 1 = Histone deacetylase 1 (Homo sapiens, UniProt Q13547); experiment: Inhibition of HDAC1
Chain of Histone deacetylase 1 (Q13547 whole entry): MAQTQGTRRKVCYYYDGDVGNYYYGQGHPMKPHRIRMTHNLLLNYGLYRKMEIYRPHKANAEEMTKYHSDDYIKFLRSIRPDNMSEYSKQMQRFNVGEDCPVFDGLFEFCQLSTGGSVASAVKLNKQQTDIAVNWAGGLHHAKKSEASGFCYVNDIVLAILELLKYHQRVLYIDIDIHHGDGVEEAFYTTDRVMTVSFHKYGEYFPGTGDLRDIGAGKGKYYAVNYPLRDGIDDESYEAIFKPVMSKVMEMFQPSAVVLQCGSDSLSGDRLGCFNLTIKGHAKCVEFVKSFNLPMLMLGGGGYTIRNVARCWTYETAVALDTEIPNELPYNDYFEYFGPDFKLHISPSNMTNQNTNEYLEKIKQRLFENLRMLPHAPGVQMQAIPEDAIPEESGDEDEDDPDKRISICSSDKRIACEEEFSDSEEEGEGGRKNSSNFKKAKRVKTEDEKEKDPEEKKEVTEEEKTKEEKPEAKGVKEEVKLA

HCT-116 = experiment: Antiproliferative activity against human HCT116 cells after 72 hrs; assay type: functional; details: HCT-116, 72 h

Structure (SMILES) | Cmax [1] [µM] | AUC [2] [µM·h] | IC50 (Histone deacetylase 1) [nM] | GI50 (HCT-116) [nM]
CP(=O)(Cc1ccc(C(=O)Nc2cc(-c3cccs3)ccc2N)cc1)OCc1cccnc1 (configuration not stated) | 8.8 | 16 | 3.5 | 130
Nc1ccc(-c2cccs2)cc1NC(=O)c1ccc(CP(=O)(O)c2ccccc2)cc1 | – | – | 28 | > 20000
CCOP(C)(=O)c1ccc(C(=O)Nc2cc(-c3cccs3)ccc2N)cc1 (configuration not stated) | 43 | 44 | 14 | 460
CCP(=O)(CC)Cc1cccc(C(=O)Nc2cc(-c3cccs3)ccc2N)c1 | – | – | 270 | > 20000
CCP(=O)(Cc1cccc(C(=O)Nc2cc(-c3cccs3)ccc2N)c1)OC (configuration not stated) | – | – | 90 | 6000
CCOP(=O)(O)Cc1ccc(C(=O)Nc2cc(-c3cccs3)ccc2N)cc1 | – | – | 38 | > 20000
CCP(=O)(Cc1ccc(C(=O)Nc2cc(-c3cccs3)ccc2N)cc1)OC (configuration not stated) | – | – | 7 | 130

More lines, in order of falling IC50 (Histone deacetylase 1), values ahead:

Cmax [1] [µM] | AUC [2] [µM·h] | IC50 (Histone deacetylase 1) [nM] | GI50 (HCT-116) [nM] | Structure (SMILES)
11 | 12 | 29 | 380 | COP(=O)(c1ccccc1)c1ccc(C(=O)Nc2cc(-c3cccs3)ccc2N)cc1 (configuration not stated)
– | – | 20 | 360 | COP(=O)(Cc1ccc(C(=O)Nc2cc(-c3cccs3)ccc2N)cc1)c1ccccc1 (configuration not stated)
1.9 | 1.3 | 11 | 270 | CC(C)P(=O)(Cc1ccc(C(=O)Nc2cc(-c3cccs3)ccc2N)cc1)C(C)C
17 | 17 | 6.5 | 240 | CCOP(=O)(CC)Cc1ccc(C(=O)Nc2cc(-c3cccs3)ccc2N)cc1 (configuration not stated)
